In patent US6413947B1, “Anilide derivative, production and use thereof” (Takeda Chemical Industries, Ltd., priority 1997, dated 2002):

SMILES	melting point
Cc1ccc(-c2ccc3c(c2)C=C(C(=O)Nc2ccc(Cc4ccccn4)cc2)CCO3)cc1 [Compound 161, N-[4—(2-pyridylmethyl)phenyl]-7—(4-methylphenyl)-2,3-dihydro-1-benzoxepine-4-carboxamide]	189 to 190 °C
Cc1ccc(-c2ccc3c(c2)C=C(C(=O)Nc2ccc(Cc4cccc[n+]4[O-])cc2)CCO3)cc1 [Compound 162, N-[4—(1-oxidopyridin-2-ylmethyl)phenyl]-7—(4-methylphenyl)-2,3-dihydro-1-benzoxepine-4-carboxamide]	188 to 190 °C
CCP(=O)(CC)Cc1ccc(NC(=O)C2=Cc3cc(-c4ccc(C)cc4)ccc3OCC2)cc1 [Compound 163, N-(4-diethylphosphorylmethylphenyl)-7—(4-methylphenyl)-2,3-dihydro-1-benzoxepine-4-carboxamide]	240 to 241 °C
Cc1ccc(-c2ccc3c(c2)C=C(C(=O)Nc2ccc(-c4cccnc4)cc2)CCO3)cc1 [Compound 164, N-[4—(3-pyridyl)phenyl]-7—(4-methylphenyl)-2,3-dihydro-1-benzoxepine-4-carboxamide]	214 to 216 °C
Cc1ccc(-c2ccc3c(c2)C=C(C(=O)Nc2ccc(-c4ccc[n+]([O-])c4)cc2)CCO3)cc1 [Compound 165, N-[4—(1-oxidopyridin-3-yl)phenyl]-7—(4-methylphenyl)-2,3-dihydro-1-benzoxepine-4-carboxamide]	262 °C (dec.)
Cc1ccc(-c2ccc3c(c2)C=C(C(=O)Nc2ccc(C(O)c4ccccn4)cc2)CCO3)cc1 (stereo not shown) [Compound 166, N-[4-[hydroxy(2-pyridyl)-methyl]phenyl]-7—(4-methylphenyl)-2,3-dihydro-1-benzoxepine-4-carboxamide]	215 to 217 °C
Cc1ccc(-c2ccc3c(c2)C=C(C(=O)Nc2ccc(C(O)c4cccc[n+]4[O-])cc2)CCO3)cc1 (stereo not shown) [Compound 167, N-[4-[hydroxy(1-oxidopyridin-2-yl)methyl]phenyl]-7—(4-methylphenyl)-2,3-dihydro-1-benzoxepine-4-carboxamide]	208 to 210 °C
CCCP(=O)(CCC)Cc1ccc(NC(=O)C2=Cc3cc(-c4ccc(C)cc4)ccc3OCC2)cc1 [Compound 168, N-(4-dipropylphosphorylmethylphenyl)-7—(4-methylphenyl)-2,3-dihydro-1-benzoxepine-4-carboxamide]	219 to 220 °C
COc1cccnc1C(O)c1ccc(NC(=O)C2=Cc3cc(-c4ccc(C)cc4)ccc3OCC2)cc1 (stereo not shown) [Compound 169, N-[4-[hydroxy(3-methoxy-pyridin-2-yl)methyl]phenyl]-7—(4-methylphenyl)-2,3-dihydro-1-benzoxepine-4-carboxamide]	232 to 233 °C
COc1ccc[n+]([O-])c1C(O)c1ccc(NC(=O)C2=Cc3cc(-c4ccc(C)cc4)ccc3OCC2)cc1 (stereo not shown) [Compound 170, N-[4-[hydroxy(3-methoxy-1-oxidopyridin-2-yl)methyl]phenyl]-7—(4-methylphenyl)-2,3-dihydro-1-benzoxepine-4-carboxamide]	242 °C (dec.)
COCOc1ccc[n+]([O-])c1Cc1ccc(NC(=O)C2=Cc3cc(-c4ccc(C)cc4)ccc3OCC2)cc1 [Compound 173, N-[4—(1-oxido-3-methoxymethoxypyridin-2-ylmethyl)phenyl]-7—(4-methylphenyl)-2,3-dihydro-1-benzoxepine-4-carboxamide]	206 to 208 °C
Cc1ccc(-c2ccc3c(c2)C=C(C(=O)Nc2ccc(Cc4ncccc4O)cc2)CCO3)cc1 [Compound 174, N-[4—(3-hydroxypyridin-2-ylmethyl)phenyl]-7—(4-methylphenyl)-2,3-dihydro-1-benzoxepine-4-carboxamide]	285 to 288 °C
Cc1ccc(-c2ccc3c(c2)C=C(C(=O)Nc2ccc(Cc4c(O)ccc[n+]4[O-])cc2)CCO3)cc1 [Compound 175, N-[4—(1-oxido-3-hydroxypyridin-2-ylmethyl)phenyl]-7—(4-methylphenyl)-2,3-dihydro-1-benzoxepine-4-carboxamide]	254 °C (dec.)
